Patent US12054765B2, “Phytopathogenic fungus detecting apparatus, and detecting method and method for selecting concentration of agricultural chemical using same” (Panasonic Intellectual Property Management Co., Ltd., priority 2018, dated 2024)

System: Botrytis cinerea
Assay: Hyphal growth of Botrytis cinerea in agricultural-chemical three-concentration-level layers-stacked culture media
Format: cell-based
Settings: 25 degrees Celsius, seven days; for hyphae of Botrytis cinerea in the culture medium layer (microscope observation from side surface): potato dextrose agar
Description: Botrytis cinerea that is one type of phytopathogenic fungus and a pathogenic fungus of tomato gray mold disease was inoculated into a potato dextrose agar culture medium (Difco (registered trademark) Potato Dextrose Agar). Next, the culture medium was left to stand still at a temperature of 25 degrees Celsius for one week. […] Next, the Botrytis cinerea-cultured potato dextrose agar culture medium in which hyphae sufficiently grew was left under irradiation with black light for not less than four days and left in a room-temperature environment for not less than two weeks to promote spore formation. […] Hereinafter, this aqueous solution is referred to as an “aqueous phytopathogenic fungus solution”.
Agricultural-chemical main-ingredient reagent Captan (manufactured by Tokyo Chemical Industry Co., Ltd. (TCI)) was added to potato dextrose agar culture media, with a charging amount (concentration) changed, to produce three layers of original culture media. Captan was prepared into a dimethyl sulfoxide (DMSO) (manufactured by SIGMA-ALDRICH) solution of Captan at a concentration 100 times a standard use concentration. The solution was charged into and mixed with the potato dextrose agar culture media respectively in amounts of 0 ml, 2 ml, and 10 ml per 1 L of the potato dextrose agar culture media to make three-concentration-level culture media respectively at a Captan concentration of 0 (no blending) and in an amount ⅕ a standard use amount of Captan and the standard use amount. In the present example, the potato dextrose agar culture media containing Captan at three concentration levels were stacked from bottom in an order of the Captan standard amount culture medium, the culture medium in an amount ⅕ the Captan standard amount, and the medium with no Captan blended, and the stacked body was cut out with a glass cylindrical, square, or rectangular shape forming member into a device of the example. […]

O=C1C2CC=CCC2C(=O)N1SC(Cl)(Cl)Cl (stereo not drawn) [Captan]
amount at which an effect against Botrytis cinerea was exerted (effective concentration) (layer where hyphal growth stopped): ⅕
hyphae of Botrytis cinerea in the culture medium layer (microscope observation from side surface) (lower layer 64, Captan blended in the standard amount): No hypha was confirmed
hyphae of Botrytis cinerea in the culture medium layer (microscope observation from side surface) (second layer 63, Captan blended in the amount ⅕ the standard use amount): no hypha of Botrytis cinerea was confirmed
